PubChem BioAssay (NCI)
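All cell lines were grown in 96-well plates and treated with compound for 48 hours. GI50 marks 50% less growth. TGI marks complete inhibition of growth.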

Key:
Test in all cases: NCI anticancer screen, dose series, 48 h
MCF7 breast = system: MCF7 breast
NCI/ADR-RES ovarian = system: NCI/ADR-RES ovarian
M14 melanoma = system: M14 melanoma
NCI-H23 lung = system: NCI-H23 lung
COLO 205 colon = system: COLO 205 colon
RPMI-8226 leukemia = system: RPMI-8226 leukemia
HS 578T breast = system: HS 578T breast
OVCAR-5 ovarian = system: OVCAR-5 ovarian
OVCAR-4 ovarian = system: OVCAR-4 ovarian
IGROV1 ovarian = system: IGROV1 ovarian
A498 renal = system: A498 renal
BT-549 breast = system: BT-549 breast
HT29 colon = system: HT29 colon
MDA-MB-435 = system: MDA-MB-435
HCT-15 colon = system: HCT-15 colon
UACC-62 melanoma = system: UACC-62 melanoma
SF-295 CNS = system: SF-295 CNS
786-0 renal = system: 786-0 renal
CCRF-CEM leukemia = system: CCRF-CEM leukemia
SN12C renal = system: SN12C renal
EKVX NSCLC = system: EKVX NSCLC
SW-620 colon = system: SW-620 colon
SR leukemia = system: SR leukemia
SK-MEL-28 melanoma = system: SK-MEL-28 melanoma
MALME-3M melanoma = system: MALME-3M melanoma
LOX IMVI melanoma = system: LOX IMVI melanoma
HCC-2998 colon = system: HCC-2998 colon
MOLT-4 leukemia = system: MOLT-4 leukemia
NCI-H522 lung = system: NCI-H522 lung
DU-145 prostate = system: DU-145 prostate
HOP-92 NSCLC = system: HOP-92 NSCLC
SNB-75 CNS = system: SNB-75 CNS
SK-MEL-5 melanoma = system: SK-MEL-5 melanoma
U251 CNS = system: U251 CNS
SK-MEL-2 melanoma = system: SK-MEL-2 melanoma
CAKI-1 renal = system: CAKI-1 renal
RXF 393 renal = system: RXF 393 renal
OVCAR-8 ovarian = system: OVCAR-8 ovarian
HL-60(TB) leukemia = system: HL-60(TB) leukemia
A549 NSCLC = system: A549 NSCLC
MDA-MB-231 breast = system: MDA-MB-231 breast
KM12 colon = system: KM12 colon
NCI-H226 lung = system: NCI-H226 lung
ACHN renal = system: ACHN renal
TK-10 renal = system: TK-10 renal
NCI-H460 lung = system: NCI-H460 lung
HOP-62 NSCLC = system: HOP-62 NSCLC
SK-OV-3 ovarian = system: SK-OV-3 ovarian
PC-3 prostate = system: PC-3 prostate
T-47D breast = system: T-47D breast
UACC-257 melanoma = system: UACC-257 melanoma
HCT-116 colon = system: HCT-116 colon
UO-31 renal = system: UO-31 renal
SNB-19 CNS = system: SNB-19 CNS
K-562 leukemia = system: K-562 leukemia
OVCAR-3 ovarian = system: OVCAR-3 ovarian
SF-539 CNS = system: SF-539 CNS
SF-268 CNS = system: SF-268 CNS

For `CCN=c1sc2c(n1NC(=O)c1cc3ccc1CCc1ccc(cc1)CC3)C(=O)c1ccccc1C2=O`, the GI50 (MCF7 breast) was 592 nM, the TGI (MCF7 breast) was 1300 nM and the GI50 (NCI/ADR-RES ovarian) was 814 nM. The TGI (NCI/ADR-RES ovarian) was 2390 nM, the GI50 (M14 melanoma) was 577 nM and the TGI (M14 melanoma) was 1110 nM. The GI50 (NCI-H23 lung) was 589 nM, the TGI (NCI-H23 lung) was 1640 nM and the GI50 (COLO 205 colon) was 1560 nM. For the same compound, the TGI (COLO 205 colon) was 3710 nM, the GI50 (RPMI-8226 leukemia) was 769 nM and the TGI (RPMI-8226 leukemia) was 2200 nM. For the same compound, the GI50 (HS 578T breast) was 784 nM, the TGI (HS 578T breast) was 2280 nM and the GI50 (OVCAR-5 ovarian) was 587 nM. For the same compound, the TGI (OVCAR-5 ovarian) was 1150 nM, the GI50 (OVCAR-4 ovarian) was 469 nM and the TGI (OVCAR-4 ovarian) was 906 nM. The GI50 (IGROV1 ovarian) was 449 nM, the TGI (IGROV1 ovarian) was 1310 nM and the GI50 (A498 renal) was 4810 nM. It also gave a TGI (A498 renal) of 20900 nM, a GI50 (BT-549 breast) of 511 nM and a TGI (BT-549 breast) of 974 nM. It also gave a GI50 (HT29 colon) of 1400 nM, a TGI (HT29 colon) of 19200 nM and a GI50 (MDA-MB-435) of 601 nM. It also gave a TGI (MDA-MB-435) of 1090 nM, a GI50 (HCT-15 colon) of 569 nM and a TGI (HCT-15 colon) of 1210 nM. It also gave a GI50 (UACC-62 melanoma) of 593 nM, a TGI (UACC-62 melanoma) of 1200 nM and a GI50 (SF-295 CNS) of 951 nM. It also gave a TGI (SF-295 CNS) of 2640 nM, a GI50 (786-0 renal) of 727 nM and a TGI (786-0 renal) of 1620 nM. The GI50 (CCRF-CEM leukemia) was 1010 nM, the TGI (CCRF-CEM leukemia) was 33300 nM and the GI50 (SN12C renal) was 520 nM. It also gave a TGI (SN12C renal) of 1060 nM, a GI50 (EKVX NSCLC) of 632 nM and a TGI (EKVX NSCLC) of 1660 nM. For the same compound, the GI50 (SW-620 colon) was 593 nM, the TGI (SW-620 colon) was 1290 nM and the GI50 (SR leukemia) was 815 nM. For the same compound, the TGI (SR leukemia) was 9910 nM, the GI50 (SK-MEL-28 melanoma) was 663 nM and the TGI (SK-MEL-28 melanoma) was 1180 nM. For the same compound, the GI50 (MALME-3M melanoma) was 524 nM, the TGI (MALME-3M melanoma) was 978 nM and the GI50 (LOX IMVI melanoma) was 478 nM. It also gave a TGI (LOX IMVI melanoma) of 1240 nM, a GI50 (HCC-2998 colon) of 824 nM and a TGI (HCC-2998 colon) of 2100 nM. For the same compound, the GI50 (MOLT-4 leukemia) was 634 nM, the TGI (MOLT-4 leukemia) was 1940 nM and the GI50 (NCI-H522 lung) was 540 nM. For the same compound, the TGI (NCI-H522 lung) was 1310 nM, the GI50 (DU-145 prostate) was 632 nM and the TGI (DU-145 prostate) was 1160 nM. For the same compound, the GI50 (HOP-92 NSCLC) was 772 nM, the TGI (HOP-92 NSCLC) was 2830 nM and the GI50 (SNB-75 CNS) was 231 nM. The TGI (SNB-75 CNS) was 787 nM, the GI50 (SK-MEL-5 melanoma) was 563 nM and the TGI (SK-MEL-5 melanoma) was 1030 nM. It also gave a GI50 (U251 CNS) of 498 nM, a TGI (U251 CNS) of 1040 nM and a GI50 (SK-MEL-2 melanoma) of 726 nM. The TGI (SK-MEL-2 melanoma) was 1560 nM, the GI50 (CAKI-1 renal) was 496 nM and the TGI (CAKI-1 renal) was 2860 nM. The GI50 (RXF 393 renal) was 504 nM, the TGI (RXF 393 renal) was 976 nM and the GI50 (OVCAR-8 ovarian) was 594 nM. The TGI (OVCAR-8 ovarian) was 1350 nM, the GI50 (HL-60(TB) leukemia) was 815 nM and the TGI (HL-60(TB) leukemia) was 2300 nM. The GI50 (A549 NSCLC) was 738 nM, the TGI (A549 NSCLC) was 1710 nM and the GI50 (MDA-MB-231 breast) was 658 nM. The TGI (MDA-MB-231 breast) was 2720 nM, the GI50 (KM12 colon) was 1020 nM and the TGI (KM12 colon) was 3830 nM. It also gave a GI50 (NCI-H226 lung) of 2210 nM, a TGI (NCI-H226 lung) of 7330 nM and a GI50 (ACHN renal) of 492 nM. It also gave a TGI (ACHN renal) of 965 nM, a GI50 (TK-10 renal) of 9540 nM and a TGI (TK-10 renal) of 16500 nM. For the same compound, the GI50 (NCI-H460 lung) was 1310 nM, the TGI (NCI-H460 lung) was 4860 nM and the GI50 (HOP-62 NSCLC) was 1020 nM. For the same compound, the TGI (HOP-62 NSCLC) was 2760 nM, the GI50 (SK-OV-3 ovarian) was 4490 nM and the TGI (SK-OV-3 ovarian) was 8950 nM. It also gave a GI50 (PC-3 prostate) of 643 nM, a TGI (PC-3 prostate) of 3050 nM and a GI50 (T-47D breast) of 706 nM. For the same compound, the TGI (T-47D breast) was 2340 nM, the GI50 (UACC-257 melanoma) was 551 nM and the TGI (UACC-257 melanoma) was 1070 nM. For the same compound, the GI50 (HCT-116 colon) was 754 nM, the TGI (HCT-116 colon) was 2070 nM and the GI50 (UO-31 renal) was 356 nM. It also gave a TGI (UO-31 renal) of 960 nM, a GI50 (SNB-19 CNS) of 605 nM and a TGI (SNB-19 CNS) of 1330 nM. The GI50 (K-562 leukemia) was 920 nM, the TGI (K-562 leukemia) was 13000 nM and the GI50 (OVCAR-3 ovarian) was 567 nM. For the same compound, the TGI (OVCAR-3 ovarian) was 1520 nM, the GI50 (SF-539 CNS) was 556 nM and the TGI (SF-539 CNS) was 1040 nM. The GI50 (SF-268 CNS) was 604 nM and the TGI (SF-268 CNS) was 1620 nM.
In the case of `COC1OC(C)C(NC(=O)OCC(Cl)(Cl)Cl)C2OC(C)(C)OC12` (stereo unspecified), the TGI (MCF7 breast) is reported as over 100000 nM, the TGI (NCI/ADR-RES ovarian) is reported as over 100000 nM and the TGI (M14 melanoma) is reported as over 100000 nM. The TGI (NCI-H23 lung) was over 100000 nM, the TGI (COLO 205 colon) was over 100000 nM and the TGI (RPMI-8226 leukemia) was over 100000 nM. The TGI (HS 578T breast) was over 100000 nM, the TGI (OVCAR-5 ovarian) was over 100000 nM and the TGI (OVCAR-4 ovarian) was over 100000 nM. For the same compound, the TGI (IGROV1 ovarian) was over 100000 nM, the TGI (A498 renal) was over 100000 nM and the TGI (BT-549 breast) was over 100000 nM. The TGI (HT29 colon) was over 100000 nM, the TGI (MDA-MB-435) was over 100000 nM and the TGI (HCT-15 colon) was over 100000 nM. For the same compound, the TGI (UACC-62 melanoma) was over 100000 nM, the TGI (SF-295 CNS) was over 100000 nM and the TGI (786-0 renal) was over 100000 nM. For the same compound, the TGI (CCRF-CEM leukemia) was over 100000 nM, the TGI (SN12C renal) was over 100000 nM and the TGI (EKVX NSCLC) was over 100000 nM. For the same compound, the TGI (SW-620 colon) was over 100000 nM, the TGI (SR leukemia) was over 100000 nM and the TGI (SK-MEL-28 melanoma) was over 100000 nM. The TGI (MALME-3M melanoma) was over 100000 nM, the TGI (HCC-2998 colon) was over 100000 nM and the TGI (MOLT-4 leukemia) was over 100000 nM. The TGI (NCI-H522 lung) was over 100000 nM, the TGI (DU-145 prostate) was over 100000 nM and the TGI (HOP-92 NSCLC) was over 100000 nM. The TGI (SK-MEL-5 melanoma) was over 100000 nM, the TGI (U251 CNS) was over 100000 nM and the TGI (CAKI-1 renal) was over 100000 nM. It also gave a TGI (RXF 393 renal) of over 100000 nM, a TGI (OVCAR-8 ovarian) of over 100000 nM and a TGI (HL-60(TB) leukemia) of over 100000 nM. For the same compound, the TGI (A549 NSCLC) was over 100000 nM, the TGI (MDA-MB-231 breast) was over 100000 nM and the TGI (KM12 colon) was over 100000 nM. The TGI (NCI-H226 lung) was over 100000 nM, the TGI (ACHN renal) was over 100000 nM and the TGI (TK-10 renal) was over 100000 nM. The TGI (NCI-H460 lung) was over 100000 nM, the TGI (HOP-62 NSCLC) was over 100000 nM and the TGI (SK-OV-3 ovarian) was over 100000 nM. For the same compound, the TGI (PC-3 prostate) was over 100000 nM, the TGI (T-47D breast) was over 100000 nM and the TGI (UACC-257 melanoma) was over 100000 nM. The TGI (HCT-116 colon) was over 100000 nM, the TGI (UO-31 renal) was over 100000 nM and the TGI (SNB-19 CNS) was over 100000 nM. The TGI (K-562 leukemia) was over 100000 nM, the TGI (OVCAR-3 ovarian) was over 100000 nM and the TGI (SF-539 CNS) was over 100000 nM. The TGI (SF-268 CNS) was over 100000 nM.
